In patent US12042523B2, “Compositions and methods for managing or improving bone disorders, joint disorders, cartilage disorders, or a combination thereof” (Unigen, Inc., priority 2014, dated 2024):

Experiments:
BKB1 receptor (BKB1R) = molecular target: T1, BKB1 receptor (BKB1R) (Homo sapiens, UniProt P46663); assay: Bradykinin B1 (BKB1) radioligand binding assay
T1 construct: Membranes from human IMR-90 lung fibroblasts, stimulated with IL-1β; endogenous in cells; host or cells: human IMR-90 lung fibroblasts stimulated with IL-1β (membranes)
T1 sequence (P46663 1-353): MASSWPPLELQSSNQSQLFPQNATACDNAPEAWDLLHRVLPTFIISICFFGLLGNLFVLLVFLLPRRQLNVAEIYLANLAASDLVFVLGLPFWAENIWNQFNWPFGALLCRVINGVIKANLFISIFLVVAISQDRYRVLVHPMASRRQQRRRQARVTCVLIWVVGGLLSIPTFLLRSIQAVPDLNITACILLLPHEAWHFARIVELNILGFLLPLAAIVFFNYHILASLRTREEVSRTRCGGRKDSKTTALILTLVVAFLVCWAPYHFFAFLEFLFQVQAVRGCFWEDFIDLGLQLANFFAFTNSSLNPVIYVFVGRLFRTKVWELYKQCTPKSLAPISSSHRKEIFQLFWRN
Protocol: Bradykinin B1 (BKB1) radioligand binding assay was conducted to determine the inhibition activity of Curcuma longa OE and extract fractions on BKB1 binding to BKB1 receptor (BKB1R). Membranes from human IMR-90 lung fibroblasts, stimulated with IL-1β in modified HEPES buffer (PH=7.4), were incubated with a test sample in the presence of 0.9 nM [^3H](Des-Arg^10)-Kallidin for 60 minutes at room temperature. After incubation, membranes were filtered and washed five times with modified DPBS buffer (pH=7.4). Samples were scintillation counted to determine the amount of specifically bound to the BKB1 receptor containing membrane.
BKB1 binding assay, as described in Example 15, was used to test curcumin compound isolated from a Curcuma longa extract (Compound 11), as well as commercially available curcumin purchased from Sigma-Aldrich (C1386). Curcumin was tested at final concentrations ranging from 200 μM to 5 nM. Binding curves were plotted by non-linear regression fit (using GraphPad Prizm software). Ki values were computed using Cheng-Prusoff algorithm. In addition, inhibition of BKB2 receptor binding activity by curcumin was examined with methods similar to those described in Example 15 for the BKB1 receptor with some modifications. Bradykinin Radioligand Binding Assay (BKB2) was conducted using a standard assay under the following conditions: • 1. […] Reading: TopCount.

[1] = test system: rhIL-1α-mediated degradation of proteoglycan in rabbit articular cartilage explants; assay: Ex vivo glycosaminoglycans (GAG) release assay; type: cell-based; conditions: for effect on rhIL-1α-mediated degradation of PG / % GAG release: rhIL-1α 5 ng/ml; for % GAG release: IL-1α alone = 100
Protocol: Articular cartilage from hock joints of rabbits (2.5 kg body weight) was removed immediately after each animal was sacrificed and articular cartilage explants were obtained by following the method described by Sandy et al. (Biochem. Biophy Acta 543:36, 1978).
Briefly, after the articular surfaces were surgically exposed under sterile conditions, approximately 200-220 mg articular surfaces per joint were dissected and submerged into complete medium (DMEM, supplemented with heat inactivated 5% FBS; penicillin 100 U/ml; streptomycin 100 ug/ml). They were then rinsed several times with the complete medium and incubated for 1 to 2 days at 37° C. in a humidified 5% CO2/95% air incubator for stabilization. The complete medium was replaced with a basal medium (DMEM, supplemented with heat-inactivated 1% FBS, 10 mM HEPES, and penicillin 100 U/ml streptomycin 100 μg/ml). Approximately 30 mg cartilage pieces (2×3×0.35 mm/piece) were placed in 24-well plates and treated with given concentrations of test agents. After pretreatment for 1 h, 5 ng/ml of rhIL-1α was added to the culture medium and further incubated at 37° C. in a humidified 5% CO2/95% air incubator. The culture medium was collected 24 h later and stored at −20° C. until assay.
The amount of sulphated GAGs (e.g., released from proteoglycans) in the medium at the end of the reaction reflects the amount of articular cartilage degradation, which was determined using the commercially available 1,9-dimethy-methylene blue method according to the instructions of the manufacturer (Blyscan™ assay, Accurate Chemical and Scientific Corp., Westbury, New York).

## COc1cc(/C=C/C(=O)CC(=O)/C=C/c2ccc(O)c(OC)c2)ccc1O [Curcumin]
BKB1 receptor (BKB1R)
  BKB1 versus BKB2 binding inhibition: selective BKB1 antagonist

## CC(C)=CCc1c(-c2ccc(O)cc2O)oc2c3c(cc(O)c2c1=O)OC(C)(C)C=C3 [Morusin]
[1]
  effect on rhIL-1α-mediated degradation of PG: strong inhibitory effect

## OC[C@H]1O[C@@H](Oc2cc(O)cc(/C=C/c3ccc(O[C@@H]4O[C@H](CO)[C@@H](O)[C@H](O)[C@H]4O)cc3O)c2)[C@H](O)[C@@H](O)[C@@H]1O [Mulberoside A, mulberroside A]
[1]
  effect on rhIL-1α-mediated degradation of PG: strong inhibitory effect

## CC(=O)N[C@H]1C(O)O[C@H](CO)[C@@H](O)[C@@H]1O (stereo partly drawn) [NAG, N-Acetyl Glucosamine]
[1]; Oryctolagus cuniculus, 150 μg/ml, individual
  inhibition at 150 µg/mL: 31.8%
[1]; sample 12.5 μg/ml
  % GAG release: 95.7%
[1]; sample 25 μg/ml
  % GAG release: 99.2%
[1]; sample 50 μg/ml
  % GAG release: 87.5%
[1]; sample 75 μg/ml
  % GAG release: 81.2%

## Oc1cc(O)cc(/C=C/c2ccc(O)cc2O)c1 [Oxyresveratrol]
[1]
  effect on rhIL-1α-mediated degradation of PG: strong inhibitory effect
